Article PMC7972453, “The allosteric modulation of complement C5 by knob domain peptides” (eLife, 2021)
Entries after “also recorded” stand apart in the source; their conditions may differ. Bridges are numbered along the chain shown (N, C = ends). Where no end group is shown, it is not given here.

Key:
[1] = tested on: rabbit erythrocytes (alternative pathway haemolysis); test: Inhibition of alternative pathway haemolysis; format: cell-based, rabbit erythrocytes; normal human serum; details: 4.5% serum
Description: GVB^++ or Mg EGTA buffers, which had been supplemented with 2.5% glucose (w/v), were used for the CP and AP assays, respectively. For the AP, 150 µL of rabbit erythrocytes (TCS Biosciences, Botolph Claydon, UK) were washed twice, by addition of 1 mL of buffer and centrifugation at 800 ×g for 1 min, and finally resuspended in 500 µL of buffer. For the CP, 150 µL sheep erythrocytes (TCS Biosciences, Botolph Claydon, UK) were washed twice with 1 mL of buffer and sensitised with a 1/1000 dilution of rabbit anti-sheep red blood cell stroma antibody (S1389, Sigma Aldrich, Gillingham, UK). After a 30°C/30 min incubation, with shaking, the cells were rewashed and resuspended with 500 µL of buffer. Serial dilutions of peptide were prepared in the respective buffers and normal human serum was added at 1% for the CP and 4.5% for the AP (corresponding to CH50 of the serum). Also, 90 µL of peptide–serum mixtures were plated into a V-bottom 96-well microtiter plate (Corning) and 10 µL of erythrocytes were added. Plates were incubated for 30 min at 37°C, with shaking. Finally, 50 µL of buffer was added, the plates centrifuged at 800 ×g, and 80 µL of supernatant was transferred to an ELISA plate (Nunc) and absorbance measured at 405 nm.
Table 1.8. Inhibition of alternative pathway haemolysis.

[2] = tested on: alternative pathway mediated C5a release (complement C5); test: Inhibition of alternative pathway mediated C5a release (ELISA); format: biochemical, human; details: AP C5a release; n=3 (K8: n=4); ND* = Not detected
Description: For the C5b ELISA, assays were run using the CP and AP Complement functional ELISA kits (Svar Life Science, Malmö, Sweden). For sample preparation, serum was diluted as per the respective protocol for the CP and AP assays. Serial dilutions of peptides were prepared and allowed to incubate with serum for 15 min at room temperature prior to plating.
For the C5a ELISA, assays were run using the Complement C5a Human ELISA Kit (Invitrogen, Renfrew, UK). For sample preparation, at the end of the 37°C incubation of the serum/peptide samples on the C5b ELISA plate, 50 µL of the diluted, activated serum was transferred to a C5a ELISA plate containing 50 µL/well of assay buffer. All subsequent experimental steps were performed as described in the protocol.
Table 1.4. Inhibition of alternative pathway mediated C5a release.
Data from n=3, unless otherwise stated

[3] = tested on: classical pathway mediated C9 deposition; test: Inhibition of classical pathway mediated C9 deposition (ELISA); format: biochemical, human; details: CP C9 deposition; 1% serum; n=3; ND* = Not detected
Description: (§1) For the C3 and C9 ELISAs, microtiter plates (MaxiSorp; Nunc) were incubated overnight at 4°C with 50 µL of a solution of in 75 mM sodium carbonate (pH 9.6) containing either 2.5 µg/mL aggregated human IgG (Sigma-Aldrich, Gillingham, UK) for CP or 20 µg/mL zymosan (Sigma-Aldrich, Gillingham, UK) for AP. As a negative control, wells were coated with 1% (w/v) bovine serum albumin (BSA)/PBS. Microtiter plates were washed four times with 250 µL of wash buffer (50 mM Tris-HCl), 150 mM NaCl and 0.1% Tween 20 (pH 8) between each step of the procedure. Wells were blocked using 250 µL of 1% (w/v) BSA/PBS for 2 hr at room temperature. […] Complement activation was assessed through detection of deposited complement activation factors using specific antibodies against C3b (rat anti-human C3d HM2198, Hycult, Uden, The Netherlands) and C9 (goat anti-human C9, A226, Complement Technologies Tyler, TX) at a 1:1000 dilution. Bound primary antibodies were detected with […]-conjugated goat anti-rat (ab97057, Abcam, Cambridge, UK) or rabbit anti-goat (P0449, Agilent Dako, Santa Clara, CA) secondary antibodies at a 1:1000 dilution. Bound HRP-conjugated antibodies were detected using TMB One solution (Eco-TEK – manufactured by Bio-TEK, Winooski, VT) with absorbance measured at 450 nm. […]

[4] = tested on: alternative pathway mediated C9 deposition; test: Inhibition of alternative pathway mediated C9 deposition (ELISA); format: biochemical, human; details: 5% serum, n=3, ND* = Not detected
Description: as §1

SVCPDGFDWGYGCAAGSSRFCTRHDWCCYDERADSHTYGFCTGNRVENLYFQ (disulfide 3-28, 13-21, 27-41) [K8]
inhibition of AP haemolysis (in words) [1]: did not show efficacy in the AP haemolysis assay, below 10 µM; also recorded: did not show activity in the AP assay below 10 µM | Average Emax [2]: 71.8% | Average Emax [3]: 63.4% | Average Emax ([4]; AP C9 deposition): 73.3% | IC50 ([4]; AP, Mg-EGTA pH 7.3, zymosan plate, preincubated on ice 30 min, 60 min 37°C, read-out: Geomean IC50): 232 nM
